Assay results as given in patent US8557812B2, “Small molecule inhibitors of anti-apoptotic BCL-2 family members and the uses thereof” (The Regents of the University of Michigan, priority 2004, dated 2013).
pIC50: −log10 of the molar value.

How the values were obtained:
MDA-MB-231 (2LMP) cells = test: Cell growth of MDA-MB-231 (2LMP) cells (WST); assay type: cell-based; conditions: Homo sapiens, read-out: IC50 of cell growth inhibition
human Bcl-xL = human Bcl-xL (Homo sapiens, UniProt Q07817); test: Fluorescence polarization in vitro Bcl-xL binding assay; conditions: displacement of Flu-Bak peptide
Chain of human Bcl-xL (Q07817 1-209 limits assumed): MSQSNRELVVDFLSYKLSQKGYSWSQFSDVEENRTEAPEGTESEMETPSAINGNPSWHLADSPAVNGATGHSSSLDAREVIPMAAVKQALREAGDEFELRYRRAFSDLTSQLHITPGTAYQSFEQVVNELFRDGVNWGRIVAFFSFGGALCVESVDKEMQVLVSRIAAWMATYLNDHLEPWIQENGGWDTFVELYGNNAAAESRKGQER
Source text: For determination of the binding affinity to Bcl-xL protein a human Bcl-xL recombinant His-tagged protein without the C-terminus hydrophobic tail and the Bak-16mer BH3 peptide labeled with 6-carboxyfluorescein succinimidyl ester (FAM) were used.

Bcl-2 = Bcl-2 (Homo sapiens, UniProt P10415); test: Fluorescence polarization in vitro Bcl-2 binding assay
Chain of Bcl-2 (P10415 92-205 limits assumed): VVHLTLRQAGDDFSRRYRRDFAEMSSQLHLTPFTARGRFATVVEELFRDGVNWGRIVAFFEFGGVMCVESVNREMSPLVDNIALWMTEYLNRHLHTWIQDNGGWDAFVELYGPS
Method: Bcl-2 used in this assay is a recombinant His-fused soluble protein. […] Inc., Research Triangle Park, N.C.). […] The unlabeled Bid peptide is used as the positive control. The Ki values were calculated using our developed equation for FP assay (Nikolovska-Coleska et al., Anal. Biochem., 2004, in press). The program for calculating a Ki value is available free of charge via the Internet at http://sw16.im.med.umich.edu/software/calc_ki/.

Compound | pIC50 (MDA-MB-231 (2LMP) cells) | pIC50 (human Bcl-xL) | pIC50 (Bcl-2)
Cc1cc(Cc2cc(Cc3ccccc3)c(O)c(O)c2O)c(C(C)C)cc1Oc1ccc([N+](=O)[O-])cc1C(F)(F)F [TM-146] | 4.70 to 7.00 | – | –
Cc1cc(Cc2cc(Cc3ccccc3)c(O)c(O)c2O)c(C(C)C)cc1Oc1ccnc2ccccc12 [TM-147] | 4.70 to 7.00 | – | –
Cc1cc(Cc2cc(Cc3ccccc3)c(O)c(O)c2O)c(C(C)C)cc1Oc1ccc([N+](=O)[O-])c(C(F)(F)F)c1 [TM-145] | 4.70 to 7.00 | – | –
Cc1cc(Cc2cc(Cc3ccccc3)c(O)c(O)c2O)c(C(C)C)cc1Oc1ccc2ccccc2n1 [TM-150] | 4.70 to 7.00 | – | –
O=C(c1ccc(Br)cc1)c1cc(CCCc2ccccc2)c(O)c(O)c1O [TM-128] | 4.70 to 7.00 | – | –
Cc1cc(C(=O)c2cc(Cc3ccccc3)c(O)c(O)c2O)c(C(C)C)cc1Oc1ccc(C(F)(F)F)cc1[N+](=O)[O-] [TM-148] | 4.70 to 7.00 | – | –
CCCCCCCCCCCc1cc(O)c(O)c(O)c1CCCc1ccccc1 [TM-130] | 4.70 to 7.00 | – | –
CC(C)c1ccc(C(=O)c2cc(CCCc3ccccc3)c(O)c(O)c2O)cc1 [TM-126] | 4.70 to 7.00 | – | –
Cc1cc(Cc2cc(Cc3ccccc3)c(O)c(O)c2O)c(C(C)C)cc1Oc1ccc(C(F)(F)F)cc1[N+](=O)[O-] [TM-144] | 4.70 to 7.00 | – | –
O=C(c1cccc(Br)c1)c1cc(CCCc2ccccc2)c(O)c(O)c1O [TM-137] | 4.70 to 7.00 | – | –
CCCCCCCCCCCCCCCc1cc(C(C)C)c(O)c(O)c1O [TM-109] | 4.70 to 7.00 | – | –
CCCCCC(=O)c1cc(C(C)C)c(O)c(O)c1O [TM-104] | 4.70 to 7.00 | – | –
O=C(c1ccc(Cc2cc(CCCc3ccccc3)c(O)c(O)c2O)cc1)c1cccc(O)c1O [TM-135] | 4.70 to 7.00 | – | –
CC(C)Cc1ccc(Cc2cc(CCCC3CCCCC3)c(O)c(O)c2O)cc1 [TM-134] | 4.70 to 7.00 | – | –
CC(C)c1cc(Cc2cc(Cc3ccccc3)c(O)c(O)c2O)ccc1O [TM-152] | 4.70 to 7.00 | – | –
CCCCCCCCCCCCCCC(=O)c1cc(C(C)C)c(O)c(O)c1O [TM-110] | 4.70 to 7.00 | – | –
CCCCCCCCCCC(=O)c1cc(C(CCCCCCCCCC)c2ccccc2)c(O)c(O)c1O (stereo not shown) [TM-124] | < 4.70 | – | –
CC(C)Cc1ccc(Cc2cc(CCCc3ccccc3)c(O)c(O)c2O)cc1 [TM-132] | 4.70 to 7.00 | – | –
CCCCCCc1cc(C(C)C)c(O)c(O)c1O [TM-103] | 4.70 to 7.00 | – | –
CC(C)c1cc(Cc2cc(Cc3ccccc3)c(O)c(O)c2O)ccc1Oc1ccc2ccccc2n1 [TM-153] | 4.70 to 7.00 | – | –
CCCCCCCCCCC(c1ccccc1)c1cc(Cc2ccc(Br)cc2)c(O)c(O)c1O (stereo not shown) [TM-125] | 4.70 to 7.00 | – | –

Next, values leading:

pIC50 (MDA-MB-231 (2LMP) cells) | pIC50 (human Bcl-xL) | pIC50 (Bcl-2) | Compound
4.70 to 7.00 | – | – | CC(C)c1cc(Cc2cc(Cc3ccccc3)c(O)c(O)c2O)ccc1Oc1ccnc2ccccc12 [TM-154]
4.70 to 7.00 | – | – | O=C(c1ccc(Oc2ccccc2)cc1)c1cc(C(=O)c2cccc3ccccc23)c(O)c(O)c1O [TM-168]
– | < 6.00 | < 6.00 | CNS(=O)(=O)c1ccc2c(c1)CN(C(=O)c1cc(S(=O)(=O)N3CCc4ccccc4C3)c(O)c(O)c1O)CC2 [TM-1215]
– | < 6.00 | < 6.00 | CNS(=O)(=O)c1cc(C(=O)N2CCc3ccc(S(=O)(=O)NCCc4ccccc4)cc3C2)c(O)c(O)c1O [TM-1217]
4.70 to 7.00 | – | – | O=C(c1ccc(Oc2ccccc2)cc1)c1cc(C(=O)c2ccc(Oc3ccccc3)cc2)c(O)c(O)c1O [TM-170]
– | < 6.00 | < 6.00 | O=C(c1cc(S(=O)(=O)N2CCc3ccccc3C2)c(O)c(O)c1O)N1CCc2ccc(S(=O)(=O)NCCc3ccc(Oc4ccccc4)cc3)cc2C1 [TM-1212]
4.70 to 7.00 | – | – | CC(C)c1cc(Cc2cc(Cc3ccccc3)c(O)c(O)c2O)ccc1Oc1ccc([N+](=O)[O-])cc1C(F)(F)F [TM-155]
– | < 6.00 | ≥ 6.00 | O=C(c1cc(S(=O)(=O)N2CCc3ccccc3C2)c(O)c(O)c1O)N1CCc2ccc(S(=O)(=O)NCCc3cccc(Cl)c3)cc2C1 [TM-1208]
– | < 6.00 | < 6.00 | O=C(c1cc(S(=O)(=O)N2CCc3ccccc3C2)c(O)c(O)c1O)N1CCc2ccc(S(=O)(=O)Nc3ccccc3)cc2C1 [TM-195]
– | < 6.00 | ≥ 6.00 | NS(=O)(=O)c1ccc(CCNS(=O)(=O)c2ccc3c(c2)CN(C(=O)c2cc(S(=O)(=O)N4CCc5ccccc5C4)c(O)c(O)c2O)CC3)cc1 [TM-1210]
– | < 6.00 | ≥ 6.00 | CCC(CC)CNS(=O)(=O)c1ccc2c(c1)CN(C(=O)c1cc(S(=O)(=O)N3CCc4ccccc4C3)c(O)c(O)c1O)CC2 [TM-1216]
– | < 6.00 | < 6.00 | O=C(c1cc(S(=O)(=O)N2CCc3ccccc3C2)c(O)c(O)c1O)N1CCc2ccc(S(=O)(=O)NCc3ccccc3)cc2C1 [TM-196]
– | < 6.00 | ≥ 6.00 | O=C(c1cc(S(=O)(=O)N2CCc3ccc(S(=O)(=O)N4CCCCC4)cc3C2)c(O)c(O)c1O)N1CCc2ccccc2C1 [TM-190]
– | < 6.00 | ≥ 6.00 | O=C(c1cc(S(=O)(=O)N2CCc3ccccc3C2)c(O)c(O)c1O)N1CCc2ccc(S(=O)(=O)N3CCC(Cc4ccccc4)CC3)cc2C1 [TM-1203]
– | < 6.00 | < 6.00 | O=C(c1cc(S(=O)(=O)N2CCc3ccccc3C2)c(O)c(O)c1O)N1CCc2ccc(S(=O)(=O)N[C@@H](Cc3ccccc3)C(=O)N3CCCCC3)cc2C1 [TM-1200]
– | < 6.00 | ≥ 6.00 | CN(CCc1ccccc1)S(=O)(=O)c1ccc2c(c1)CN(C(=O)c1cc(S(=O)(=O)N3CCc4ccccc4C3)c(O)c(O)c1O)CC2 [TM-1207]
– | < 6.00 | < 6.00 | O=C(c1ccc2ccccc2c1)c1cc(C(=O)c2ccc3ccccc3c2)c(O)c(O)c1O [TM-175]
– | < 6.00 | < 6.00 | O=C(c1cc(C(=O)C2N=C3C=CC=CC3S2)c(O)c(O)c1O)C1N=C2C=CC=CC2S1 (stereo not shown) [TM-176]
– | < 6.00 | ≥ 6.00 | O=C(c1cc(S(=O)(=O)N2CCc3ccccc3C2)c(O)c(O)c1O)N1CCc2ccc(S(=O)(=O)NCCc3ccccc3)cc2C1 [TM-197]
– | < 6.00 | ≥ 6.00 | O=C(NCc1ccccc1)c1cc(S(=O)(=O)N2CCc3ccc(S(=O)(=O)N4CCCCC4)cc3C2)c(O)c(O)c1O [TM-192]
– | < 6.00 | < 6.00 | COc1c(C(=O)C2N=C3C=CC=CC3S2)cc(C(=O)C2N=C3C=CC=CC3S2)c(O)c1O (stereo not shown) [TM-178]
4.70 to 7.00 | – | – | Cc1cc(Oc2ccc(Cc3cc(Cc4ccccc4)c(O)c(O)c3O)cc2C(C)C)c2ccccc2n1 [TM-156]
4.70 to 7.00 | – | – | O=C(c1ccc(Oc2ccccc2)cc1)c1ccc(O)c(O)c1O [TM-166]
– | < 6.00 | < 6.00 | O=C(c1cc(S(=O)(=O)N2CCc3ccccc3C2)c(O)c(O)c1O)N1CCc2ccc(S(=O)(=O)N3CCCCC3)cc2C1 [TM-193]
– | < 6.00 | ≥ 6.00 | CN(CCc1ccccc1)S(=O)(=O)c1cc(C(=O)N2CCc3ccc(S(=O)(=O)NCCc4ccccc4)cc3C2)c(O)c(O)c1O [TM-1205]
– | < 6.00 | < 6.00 | O=C(c1cc(C(=O)c2cccc3ccccc23)c(O)c(O)c1O)c1cccc2ccccc12 [TM-174]
– | < 6.00 | < 6.00 | O=C(c1cc(S(=O)(=O)N2CCc3ccccc3C2)c(O)c(O)c1O)N1CCc2ccc(S(=O)(=O)NCC(c3ccccc3)c3ccccc3)cc2C1 [TM-198]
– | < 6.00 | < 6.00 | CC(C)CNS(=O)(=O)c1ccc2c(c1)CN(C(=O)c1cc(S(=O)(=O)N3CCc4ccccc4C3)c(O)c(O)c1O)CC2 [TM-194]
– | < 6.00 | < 6.00 | CN(Cc1ccccc1)S(=O)(=O)c1cc(C(=O)N2CCc3ccc(S(=O)(=O)NCCc4ccccc4)cc3C2)c(O)c(O)c1O [TM-1201]
